These are literature values, as cited in patent publication US9399025B2, “Modified release dosage forms of skeletal muscle relaxants” (APTALIS PHARMATECH, INC., priority 2003, dated 2016).

Take `CN(C)CCC=C1c2ccccc2C=Cc2ccccc21` [Cyclobenzaprine]: the Elimination half-life result (after oral administration) is “one to three”. For the setting “oral”, the “Absorption after oral administration” value is “well absorbed”.
